According to publication PMC6681021 (Pharmaceutics, 2019):
Where “and” joins values, the source holds several entries; their conditions need not be identical. Equal values may be shown once. Read-outs that look alike come from different tables or passages of the source.

Columns and labels:
[1] = Pharmacokinetics after 1-min intravenous infusion of tofacitinib to rats; type: in vivo, Sprague-Dawley rats; details: for clearance / CL renal / MRT / half-life / Vd: Sprague-Dawley; for clearance / CL renal / MRT / half-life / Vd / AUC: rat; for Dose-normalized AUC: normalized to 10 mg/kg; for half-life: read-out: Terminal half-life; for Vd: read-out: Vss; for AUC: 1-min iv infusion, male Sprague-Dawley rats
Description: The pretreatment and surgical procedures for oral and intravenous administration were similar to those described previously. For oral administration, the rats were fasted overnight with free access to water. The rats were anesthetized with ketamine (200 mg/kg), and their carotid arteries were cannulated using polyethylene tubing (Clay Adams, Parsippany, NJ, USA) for blood sampling. For intravenous administration, the rats were anesthetized with ketamine (200 mg/kg), and their jugular veins and carotid arteries were cannulated for drug administration and blood sampling, respectively. Rats were allowed to recover for 4–5 h after surgical procedures. The rats were not restrained during the experimental period and had free access to water and food.
Blood samples (110–220 μL) were collected via the carotid artery at times 0 (prior to drug administration), 1 (at the end of drug infusion), 5, 15, 30, 45, 60, 90, 120, 180, 240, 360, 480, and 600 min. […] To prevent blood clotting, 0.3 mL of heparinized 0.9% NaCl-injectable solution (20 IU/mL) was immediately injected into the carotid artery after each blood sampling. Urine samples were collected over 24 h; in addition, each metabolic cage was rinsed with 20 mL of distilled water 24 h after drug administration, and the rinses were combined with their corresponding 24-h urine samples. […] At 24-h, each rat was exsanguinated, followed by cervical dislocation. The abdomen of each rat was opened and the entire gastrointestinal tract, including its contents and feces, was removed, transferred to a beaker containing 50 mL methanol, and cut into small pieces using scissors.
Two microliters of hydrocortisone (5 mg/mL) and 40 μL of 20% ammonia solution were added to 100 μL aliquots of biological samples and vortex-mixed for 30 s using a vortex mixer. Each solution was extracted with 1.5 mL of ethyl acetate by centrifugation at 12,000 rpm for 5 min. The organic layer was collected and dried (Dry Thermobath, Eyela, Tokyo, Japan) under a gentle stream of nitrogen gas at 40 °C. The samples were reconstituted in 130 μL of 20% acetonitrile, and 50 μL of resuspended samples were analyzed by HPLC [12].
The mobile phase consisted of a 69.5:30.5 (v/v) mixture of 10 mM ammonium acetate buffer (pH 5.0) and acetonitrile, respectively, with a flow rate of 1.0 mL/min. Column effluent was monitored by a UV detector at 287 nm.
Pharmacokinetic parameters, including AUC, apparent volume of distribution at steady state (Vss), mean residence time (MRT), and time-averaged total body (CL), renal (CLR), and nonrenal (CLNR) clearances, were calculated by noncompartmental analysis (WinNonlin, Pharsight Corporation, Mountain View, CA, USA) using standard methods. AUC values were calculated using the trapezoidal rule–extrapolation method. The peak plasma concentration (Cmax) and time to reach Cmax (Tmax) were obtained directly from the experimental data. The mean values of clearance, terminal half-life, and Vss were calculated using the harmonic mean method.

[2] = Biliary excretion after intravenous infusion in rats; type: in vivo, Sprague-Dawley rats; details: 1-min iv infusion 10 mg/kg, 0–24 h bile, n = 3
Description: The jugular vein of each rat was cannulated. The abdomen was opened and the bile duct was cannulated with polyethylene tubing. The incision was closed with surgical sutures and each rat was kept warm under an electric light. Each rat was maintained in the supine position during the entire experiment. […] Bile samples were collected over various time periods, from 0–1, 1–2, 2–4, 4–6, and 6–24 h.

[3] = Human pharmacokinetics of tofacitinib (literature); type: in vivo; details: humans; 100–74%
[4] = cited from earlier work
[5] = humans, cited from earlier work

Structure (SMILES): C[C@@H]1CCN(C(=O)CC#N)C[C@@H]1N(C)c1ncnc2[nH]ccc12 [tofacitinib, 3-[(3R,4R)-4-methyl-3-[methyl-(7H-pyrrolo[2,3-day]pyrimidin-4-l)amino]piperidin-1-yl]-3-oxopropanenitril]
- clearance ([1]; plasma, iv 50 mg/kg): 14.5 ± 2.33 mL/min/kg
- Ae0–24 h ([1]; all intravenous doses): less than 11.0%
- Slope of plot of AUC versus dose ([1]; intravenous, dose and AUC ratios based on 5 mg/kg): 2.74
- CLR slower at 50 mg/kg than at 5 mg/kg ([1]; iv): 69%
- CLR slower at 50 mg/kg than at 10 mg/kg ([1]; iv): 71%
- CLR slower at 50 mg/kg than at 20 mg/kg ([1]; iv): 71%
- Ae0–24 h (excreted unchanged in 24-h urine) ([1]; iv 5 mg/kg): 7.62 ± 5.08 % of dose
- CLNR ([1]; iv 5 mg/kg): 32.9 ± 7.72 mL/min/kg
- Dose-normalized AUC ([1]; iv 5 mg/kg): 282 µg·min/mL and 282 ± 46.0 µg·min/mL
- Ae0–24 h (excreted unchanged in 24-h urine) ([1]; iv 10 mg/kg): 9.40 ± 5.06 % of dose
- CLNR ([1]; iv 10 mg/kg): 26.3 ± 2.16 mL/min/kg
- Dose-normalized AUC ([1]; iv 10 mg/kg): 342 µg·min/mL and 342 ± 33.1 µg·min/mL
- Ae0–24 h (excreted unchanged in 24-h urine) ([1]; iv 20 mg/kg): 11.0 ± 3.72 % of dose
- CLNR ([1]; iv 20 mg/kg): 22.6 ± 3.90 mL/min/kg
- Dose-normalized AUC ([1]; iv 20 mg/kg): 404 µg·min/mL and 404 ± 73.0 µg·min/mL
- Ae0–24 h (excreted unchanged in 24-h urine) ([1]; iv 50 mg/kg): 5.55 ± 3.91 % of dose
- CLNR ([1]; iv 50 mg/kg): 13.7 ± 2.12 mL/min/kg
- Dose-normalized AUC ([1]; iv 50 mg/kg): 705 µg·min/mL and 705 ± 114 µg·min/mL
- CL renal ([1]; male, plasma, iv 5 mg/kg): 2.69 ± 1.7 mL/min/kg
- MRT ([1]; male, plasma, iv 5 mg/kg): 35.2 min
- clearance ([1]; male, plasma, iv 5 mg/kg): 36.3 ± 6.02 mL/min/kg
- half-life ([1]; male, plasma, iv 5 mg/kg): 38.2 ± 11.7 min
- Vd ([1]; male, plasma, iv 5 mg/kg): 1.26 ± 0.46 L/kg
- CL renal ([1]; male, plasma, iv 10 mg/kg): 2.8 ± 1.69 mL/min/kg
- MRT ([1]; male, plasma, iv 10 mg/kg): 41.1 min
- clearance ([1]; male, plasma, iv 10 mg/kg): 29.5 ± 2.99 mL/min/kg
- half-life ([1]; male, plasma, iv 10 mg/kg): 41.6 ± 7.86 min
- Vd ([1]; male, plasma, iv 10 mg/kg): 1.21 ± 0.579 L/kg
- CL renal ([1]; male, plasma, iv 20 mg/kg): 2.8 ± 1.17 mL/min/kg
- MRT ([1]; male, plasma, iv 20 mg/kg): 35.5 min
- clearance ([1]; male, plasma, iv 20 mg/kg): 25.4 ± 4.26 mL/min/kg
- half-life ([1]; male, plasma, iv 20 mg/kg): 48.1 ± 5.56 min
- Vd ([1]; male, plasma, iv 20 mg/kg): 0.9 ± 0.218 L/kg
- CL renal ([1]; male, plasma, iv 50 mg/kg): 0.824 ± 0.651 mL/min/kg
- MRT ([1]; male, plasma, iv 50 mg/kg): 105 min
- half-life ([1]; male, plasma, iv 50 mg/kg): 97.8 ± 19.2 min
- Vd ([1]; male, plasma, iv 50 mg/kg): 1.49 ± 0.134 L/kg
- clearance ([1]; male, range over intravenous doses, based on plasma data): 14.5 to 36.3 mL/min/kg
- AUC ([1]; plasma, 5 mg/kg): 2350 ng·h/mL
- AUC ([1]; plasma, 10 mg/kg): 5700 ng·h/mL
- AUC ([1]; plasma, 20 mg/kg): 13500 ng·h/mL
- AUC ([1]; plasma, 50 mg/kg): 58800 ng·h/mL
- Excreted in bile [2]: 0.703 ± 0.303 % of the intravenous dose
- Oral dose presumed first-pass metabolized in the intestine and the liver [3]: 26%
- AUC of tofacitinib reduced in pretreated rats ([4]; pretreated with dexamethasone, inducer of CYP3A1/2): 56%
- AUC of tofacitinib greater in pretreated rats ([4]; pretreated with fluconazole, inhibitor of CYP2C11): 39%
- AUC of tofacitinib greater in pretreated rats ([4]; pretreated with ketoconazole, inhibitor of CYP3A1/2): 46%
- AUC of tofacitinib reduced in pretreated rats ([4]; pretreated with rifampin, inducer of CYP2C11): 26%
- Terminal half-life [5]: 192 min
- Volume of distribution [5]: 87 L
- Bound to plasma proteins ([5]; oral): 40%
